Each structure is given as a SMILES string.

The results in this text go back to patent US5522922A, “Aqueous ink composition” (priority 1993, dated 1996).

This series is described as follows: LD50, oral dosing of mice or rabbits. The following applies: in vivo. An excerpt: LD50 means a lethal dose (mg/kg) necessary to kill more than half of examined mice or rabbits when the mice or rabbits are orally dosed with a certain concentration. Safety improves as LD50 increases.
As is clear from Table 11, an aqueous ink composition of the present invention is 5 to 8 times more safe than a conventional aqueous ink composition. Therefore, to maintain this standard of safety, triethanolamine used in the present invention is limited to triethanolamine meeting the standards described in the present specification and the Japanese Standards of Cosmetic Ingredient (Yakuji Nippo, Ltd., second edition).

For orientation: LD50 means the dose expected to kill half of the subjects tested. A high value points to lower toxicity. For the molecule `CCN(CC)N=O` [Diethyl nitrosamine, diethyl nitrosamine], the LD50 was 15 mg/kg.
